# Results reported in patent publication US20250295668A1, “METHODS FOR INDUCING COLANIC ACID BIOSYNTHESIS” (priority 2024, published 2025).
# “And” between values parts separate entries of the source, which are not always exact repeats. Identical values can stand only once.
# Key:
# wildtype E. coli = assay: Colanic acid measurement (fucose quantification) in wildtype E. coli culture medium; type: cell-based
# Experimental: (§1) For colanic acid quantification, E. coli Keio mutants and the parental strain BW25113 were cultured overnight at 37° C. in M9 minimum medium [PMID: 28436966]. Bacteria were then removed by centrifugation and filtered for colanic acid measurement.
# (§2) The desired bacterial strain was first inoculated and cultured in M9 minimum medium overnight at 37° C. to obtain the seeding culture. The OD 600 was measured, and the seeding bacteria were diluted to OD600=0.02 in M9 minimum medium for another 16 hours. After the incubation, bacterial cultures were collected in 50 mL tubes, spun down at 4,000 g at 4° C. for 30 min, filtered, and 25 mL of supernatant was collected per 50 ml conical tube. Ice-cold 100% ethanol (EtOH) was added to make a final 50% EtOH solution for precipitation, and the mixture was kept at 4° C. overnight. Once precipitation occurred, the liquid was carefully removed after centrifugation at 4,000 g at 4° C. for 50 min. The pellet was washed once with cold 80% EtOH and then air-dried in a hood. The pellet from every 50 mL culture was resuspended in 500 μL distilled H2O. The solution was sonicated for 60 minutes at 37° C., followed by centrifugation at 4000 g at 4° C. for 10 minutes. A 200 μL sample was mixed with 30 μL hydrochloric acid (320331-500 mL, Sigma-Aldrich) and boiled for 2 hours. Subsequently, 60 μL 5M NaOH and 150 μL NaHCO3/NaOH buffer were added to reach a pH of 6-8, calibrated by 1M HCl or NaOH solutions. The fucose quantification assay was then carried out using a K-FUCOSE kit (Megazyme) according to the manufacturer's protocol.
# Next, colanic acid in the bacteria culture medium was quantified via monosaccharide-fucose-from acid-hydrolyzed polysaccharide precipitates. […] Calculations were performed to determine the equivalent dosage by weight in a mammalian subject. Briefly, a typical mouse consumes 5-10 ml of water per day and weighs between 30-40 g. Using the 1.8 μg/mL concentration, a lower bound of 0.225 mg/kg (0.0018 mg/mL×5 ml[…]0.04 kg) and a higher bound of 0.6 mg/kg (0.0018 mg/mL×10 ml÷0.03 kg) were identified. […] In wild-type bacteria treated with cephaloridine and Alon E. coli mutants colanic acid production increased during the exponential growth phase and remained elevated in the stationary phase (FIG. 1D).
# E. coli deletion mutants = assay: Colanic acid measurement in E. coli deletion mutants; type: cell-based; settings: low-dose cephaloridine
# Experimental: as §1, §2
# The molecular mechanism behind the induction of colanic acid by low-dose cephaloridine was investigated. It was suspected that regulation of the cps operon was centered on the well-known RCS two-component system. Canonically, the RcsC sensor histidine kinase situated in the inner membrane autophosphorylates in response to environmental cues, then the RcsD phosphotransferase transmits the phosphoryl group to the cytosolic response regulator RcsB, which functions as a transcription factor to up-regulate the cps operon, with RcsA interacting with RcsB to enhance its binding with the promoter, thereby stimulating transcriptional activation (FIG. 4A). To assess the necessity of the RCS system in colanic acid induction by low-dose cephaloridine, the E. coli deletion mutants of rcsA, rcsB, rcsC, and rcsD were treated with cephaloridine and colanic acid production was measured in their respective culture mediums.
# Considering β-lactam antibiotics show preferential affinities to various penicillin-binding proteins (PBPs) [PMID: 25733506] [PMID: 1103132], the role of these inner membrane proteins in colanic acid induction upon low-dose cephaloridine treatment was determined. […] (FIG. 5A).
# To investigate potential mediation of colanic acid induction by these kinases, E. coli deletion mutants of btsS, glrK, and zraS were treated with low-dose cephaloridine and colanic acid levels in their respective culture mediums were measured. Due to slow growth in the M9 culture medium, the rstB deletion mutant could not be evaluated.
# C. elegans = C. elegans lifespan assay on antibiotic-treated E. coli; type: in vivo, Caenorhabditis elegans
# Experimental: For longitudinal assays, E. coli Keio mutants were initially cultivated in M9 minimum medium at 37° C. for 16 hours. Subsequently, bacteria at stationary phase were reinoculated in fresh M9 medium with a low dose of cephaloridine at 37° C. for another 16 hours. A 100 μL aliquot of the bacteria culture was seeded onto each 6-cm NGM plate and maintained at 20° C. Fresh bacteria plates were prepared every other day for transfer to alive worms. Caenorhabditis elegans var. Bristol N2 strain was obtained from the Caenorhabditis Genome Center. The strain was maintained on standard nematode growth medium (NGM) agar plates seeded with corresponding bacteria at 20° C. Age synchronization of C. elegans was achieved by isolating eggs as previously described [PMID: 4858229]. Lifespan assays were performed as previously described [PMID: 25554789]. In brief, age-synchronized C. elegans at the L1 stage were seeded onto designated bacteria lawns. Fresh bacteria-containing plates were made every other day for live C. elegans transfer. Once reaching adulthood as Day 0, worms were transferred to new bacteria plates. Death events were scored upon each transfer. Bagged worms and vulva protruding worms were censored throughout the analysis. Each assay contained 80-100 animals with 30-40 animals per 6 cm plate.
smiles,measurement,setting,value
O=C(Cc1cccs1)N[C@@H]1C(=O)N2C(C(=O)[O-])=C(C[n+]3ccccc3)CS[C@H]12 [cephaloridine],colanic acid production vs untreated wildtype control,"wildtype E. coli; cephaloridine 1.8 μg/mL, 37° C.",6 fold
same,optimal concentration for inducing colanic acid biosynthesis,wildtype E. coli; range of doses below MIC,1.8 μg/mL and 4.3 μM
same,amount of colanic acid vs treated wild-type strain,E. coli deletion mutants; DacB deletion mutant (PBP4),even greater amount of colanic acid than the wild-type strain
same,induction of colanic acid,E. coli deletion mutants; DacB deletion mutant (PBP4),did induce colanic acid production
same,induction of colanic acid,E. coli deletion mutants; mrcA deletion mutant (PBP1a),failed to induce colanic acid
same,induction of colanic acid,E. coli deletion mutants; rcsA deletion mutant,completely abolished the induction of colanic acid
same,induction of colanic acid,E. coli deletion mutants; rcsB deletion mutant,completely abolished the induction of colanic acid
same,induction of colanic acid,E. coli deletion mutants; rcsC deletion mutant,no impact on the induction of colanic acid
same,induction of colanic acid,E. coli deletion mutants; rcsD deletion mutant,no impact on the induction of colanic acid
same,induction of colanic acid,E. coli deletion mutants; zraS deletion mutant,suppressed the induction of colanic acid
same,C. elegans lifespan extension vs vehicle,C. elegans; MG1655 E. coli treated with 1.8 μg/mL,13% and 13.3%
same,C. elegans lifespan,C. elegans; cephaloridine-treated rcsA deletion mutant E. coli,failed to extend lifespan
same,C. elegans lifespan,C. elegans; cephaloridine-treated rcsD deletion mutant E. coli,effectively promoted longevity
same,C. elegans lifespan extension vs vehicle,C. elegans; wildtype E. coli treated with 1.8 μg/mL,14%
